The source of these data is US5561042A, “Diamine platinum naphthalimide complexes as antitumor agents” (Cancer Therapy and Research Center, priority 1995, dated 1996).

Converted amounts (≈) assume the structure as drawn. “Also recorded” adds a separate entry of the source.

As usually defined, the T/C is the ratio of treated to control.

For data set [1] the following is noted: human, in vivo; cited from earlier work.
For data set [2] the following is noted: human, in vivo; cited from earlier work. This is another data set of the same source.
Data set [3] deals with Lambda DNA. The data set is described as follows: Ethidium bromide displacement, lambda DNA. Format: binding. The conditions noted are these: 1 μM DNA, 1.26 μM ethidium bromide, pH 7.0, read-out: FI50, Lambda DNA. Here is the method: (§1) A 10× Binding solution was prepared by combining 0.93 ml of an aqueous NaCl solution (5M), 2.0 ml of an aqueous Tris HCl (500 mM) solution, 0.1 ml of an EDTA solution (500 mM) and 46.97 ml of water. The resultant solution was 93 mM in NaCl, 20 mM in Tris HCl, and 1 mM in EDTA. Stock DNA solution were prepared as follows: Poly (dG·dC)-(dG·dC) (ε254=8.4/mM; 27-7910-02), poly(dA·dT)-(dA·dT) (ε262=6.6/mM; 27-7870-02), and lambda DNA (ε260-7.0/mM; 27-4111-01) were purchased from Pharmacia. Solutions were prepared by resuspending either poly (dG·dC)-(dG·dC) or poly(dA·dT)-(dA·dT)in 1 ml of 10× DNA Binding Solution. Lambda DNA is already in solution as purchased.
(§2) Poly (dG·dC)-(dG·dC), poly(dA·dt)-(dA·dt) and lambda DNA concentrations were determined as follows: 980 μl of 10× DNA Binding Solution was pipetted into a 1 ml cuvette. A blank was run on the UV spectrophotometer. 20 μl of the DNA stock of unknown concentration was then added into the cuvette. The sample was then scanned between 210 nm to 500 nm and the absorbance recorded at 254 nm for poly(dG·dC)-(dG·dC), at 262 nm for poly(dA·dT)-(dA·dT) and at 260 nm for lambda DNA. The solution was transferred to a clean tube. This procedure was followed for three different solutions with the absorbance taken as the average of the three. The concentration of poly(dG·dC)-(dG·dC) stock was calculated to be A254 /8.4×1000 (in μM). The concentration of poly(dA·dT)-(dA·dT) stock was calculated to be A262 /6.6×1000 (in μM). The concentration of lambda DNA stock was calculated to be A260 /7.0×1000 (in μM).
(§3) The binding of the bis-naphthalimides to DNA and to synthetic polynucleotide duplexes was determined by an ethidium bromide displacement assay that measures the reduction of fluorescence when ethidium bromide is displaced from DNA (Baguley, 1981). The fluorescence intensity of a 3 ml solution containing 9.3 mM NaCl, 2 mM Tris-HCl (pH 7.0), 100 μM EDTA, 1 μM DNA (in nucleotides) and 1.26 μM ethidium bromide in a quartz cuvette was measured at the excitation (546 nm) and emission (600 nm) wavelengths on a Shimadzu RF5000U spectrofluorometer. Graded concentrations of agent were then added and the fluorescence intensity was measured. The concentration of compound required to reduce the fluorescence intensity by 50% of that of control (FI50) was determined. Therefore, the lower the FI50 the stronger the binding affinity a particular compound has for DNA.
(§4) The ability of bis-naphthalimides of the present invention and the known anti-cancer agents compound 22 and DMP840, (R,R)-2,2'[1,2-ethanediylbis[imino(1-methyl-2,1-ethanediyl)]]-bis[5-nitro- 1H benz[de]isoquinoline-1,3-(2H)dione]dimethanesulfonate, to bind to DNA and to synthetic oligonucleotide duplexes was measured using an ethidium bromide displacement assay. Ethidium bromide, a known DNA intercalator, has no fluorescence in the absence of DNA; however, fluorescence intensity increases when ethidium bromide binds to DNA. The ethidium bromide displacement assay measures the decrease in fluorescence intensity caused by DNA-bound ethidium bromide with DNA interacting agents.

The test system of data set [4] is poly (dG.dC) - poly (dG.dC). The data set is described as follows: Ethidium bromide displacement, poly(dG.dC)-poly(dG.dC). The settings on record: for Ratio (AT/GC): FI50 poly(dA.dT)-poly(dA.dT) / FI50 poly(dG.dC)-poly(dG.dC); for IC50: ethidium bromide displacement, 1 μM DNA, 1.26 μM ethidium bromide, pH 7.0, read-out: FI50, poly (dG.dC) - poly (dG.dC). Format: binding. Here is the method: as §1, §2, §3, §4

The target of data set [5] is poly (dA.dT) - poly (dA.dT). The data set is described as follows: Ethidium bromide displacement, poly(dA.dT)-poly(dA.dT). The settings on record: 1 μM DNA, 1.26 μM ethidium bromide, pH 7.0, read-out: FI50, poly (dA.dT) - poly (dA.dT). Format: binding. How it is done:
as §1, §2, §3, §4

The test system of data set [6] is Murine B16 melanoma cell line. Kind of data set: In vitro growth inhibition (MTT), B16 melanoma. The data set is classed as cell-based. The settings on record: for IC50: Mus musculus, B16, 72 h, MTT, 3 days. The text has this:
(§5) P388 murine leukemic cell line was obtained from the DCT Tumor Repository (National Cancer Institute, Frederick Cancer Research and Development, Frederick Md. 21702). HT29 Human Colon Carcinoma cell line was obtained from the American Type Culture Collection (12301 Parklawn Drive, Rockville, Md. 20852). B16 Melanoma cell line was obtained from DuPont Merck Pharmaceutical Company (Glenolden, Pa. 19036). MCF-7 Human Breast Carcinoma cell line was a gift from Dr. K. Osborne (Department of Medicine, The University of Texas Health Science Center at San Antonio, San Antonio, Tex. 78284). All cell lines were incubated at 37° C. in a humidified atmosphere of 5% CO2 -95% air. Murine B16 melanoma cell line was grown in RPMI 1640 medium supplemented with 10% heat-inactivated fetal bovine serum, 2 mM L-glutamine, 50 units/ml penicillin, 50 μg/ml streptomycin, 25 μg/ml gentamycin, 0.75% sodium bicarbonate, 10 mM HEPES buffer (pH 7.4), and 0.06 mg/ml AntiPPLO. Murine P388 leukemic and the human HT-29 colon adenocarcinoma cell lines were maintained in RPMI 1640 medium supplemented with 10% heat-inactivated fetal bovine serum. MCF-7M human breast adenocarcinoma was maintained in IMEM medium supplemented with 5% non heat-inactivated fetal bovine serum and 1 nM insulin.
(§6) Exponentially growing cells (1-2×10^3 cells, unless specified otherwise) in 0.1 ml medium were seeded on day 0 in a 96-well microtiter plate. On day 1, 0.1 ml aliquots of medium containing graded concentrations of test compounds were added in duplicate to the cell plates. After incubation at 37° C. in a humidified incubator for 3 days (P388, B16) or 6 days (HT-29, MCF-7M), the plates were centrifuged briefly and 100 μl of the growth medium was removed. Cell cultures were incubated with 50 μl of 3-(4,5-dimethylthiazol-2-yl)-2,5-diphenyl-tetrazolium bromide [MTT, 1 mg/ml in Dulbecco's phosphate buffered saline (PBS)] for 4 hr at 37° C. The resulting purple formazan precipitate was solubilized with 200 μl of 0.04N HCl in isopropyl alcohol. Absorbance was monitored in a BioRad Model 3550 Microplate Reader at a test wavelength of 570 nm and a reference wavelength of 630 nm. The absorbance was transferred to a PC 486 computer. The IC50 values were determined by a computer program (EZ-ED50) that fit all of the data to the following four-parameterlogistic equation:
(§7) Y=((Am -Ao)/(1+(X/IC50)^n))+Ao
(§8) where Am is the absorbance of control cells, Ao is the absorbance of cells in the presence of highest agent concentration, Y is the observed absorbance, X is the agent concentration, IC50 is the concentration of agent that inhibits the cell growth by 50% of control cells (based on the absorbance) and n is the slope of the curve.

Data set [7] concerns DNA. Kind of data set: Ethidium bromide displacement, DNA binding in general. Here is the method:
as §3
The ability of bis-naphthalimides of the present invention and the known anti-cancer agents compound 22 and DMP840, (R,R)-2,2'[1,2-ethanediylbis[imino(1-methyl-2,1-ethanediyl)]]-bis[5-nitro- 1H benz[de]isoquinoline-1,3-(2H)dione]dimethanesulfonate, to bind to DNA and to synthetic oligonucleotide duplexes was measured using an ethidium bromide displacement assay. Ethidium bromide, a known DNA intercalator, has no fluorescence in the absence of DNA; however, fluorescence intensity increases when ethidium bromide binds to DNA. […]

For data set [8], the system named is topoisomerase II. The settings on record: cited from earlier work.
For data set [9], the system named is P388 murine leukemic cell line. The data set is described as follows: In vitro growth inhibition (MTT), P388 leukemia. The data set is classed as cell-based. The settings on record: Mus musculus, P388, 72 h, 3 days.
Description: as §5, §6, §7, §8

The subject of data set [10] is MCF-7 Human Breast Carcinoma cell line. The data set is described as follows: In vitro growth inhibition (MTT), MCF-7 breast carcinoma. Format: cell-based. The conditions noted are these: Homo sapiens, MCF7, 144 h, 6 days.
Description: as §5, §6, §7, §8

The conditions of data set [11]: cited from earlier work.
Data set [12] deals with MX-1 human breast carcinoma. The settings on record: in vivo; cited from earlier work.
Data set [13] deals with DLD-2 human colon adenocarcinoma. The settings on record: in vivo; cited from earlier work.
Data set [14] has as its system LX-1 lung carcinoma. The settings on record: in vivo; cited from earlier work.
The subject of data set [15] is solid tumor xenografts, human and murine leukemia, doxorubicin resistant cell lines, colon carcinoma cells. The settings on record: cited from earlier work.
The conditions of data set [16]: in vivo; cited from earlier work.
Data set [17] concerns B16 murine melanoma. Kind of data set: B16 melanoma in vivo, survival of B6D2F1 mice. The conditions noted are these: for 60-Day Survivors / Wt. Ch. (%) (Day 7) / T/C: q.d. × 5, i.p.; for T/C: mean survival treated/control.
Description: B6D2F1 mice received i.p. inocula of B16 murine melanoma brei prepared from B16 tumors growing subcutaneously in mice (day 0). On day 1, rumored mice were treated with drugs or vehicle control; the route of drug administration and schedule were selected as appropriate for the study in question. If dosing information for agents was not available, the maximum tolerated dose (MTD) was determined in initial dose finding experiments in non-tumored mice. In a typical experiment, drugs were given at their MTD and 1/2 MTD doses i.p. on a daily×5 schedule.
The mean survival times of all groups were calculated, and results were expressed as mean survival of treated mice/mean survival of control mice (T/C)×100%. A T/C value of 150 means that the mice in the treated group lived 50% longer than those of the control group; this is sometimes referred to as the increase in life space, or ILS value.
Mice that survived for 60 days were considered long term survivors, or cures, in the B16 model. The universally accepted cut-off for activity in this model, which has been used for years by the National Cancer Institute, is T/C=125.
Statistics were performed on the data using primarily the log rank p-value test.

Take `COc1cccc2c1C(=O)c1c(O)c3c(c(O)c1C2=O)C[C@@](O)(C(C)=O)C[C@@H]3O[C@H]1C[C@H](N)[C@H](O)[C@H](C)O1` [daunorubicin]: the “cardiomyopathy (in words)” value in data set [1] is “unusual cardiomyopathy”.
On to `O=C1c2c(O)cccc2-c2nn(CCNCCO)c3ccc(NCCNCCO)c1c23` [DuP 941], for which, in [2], the “clinical anti-tumor activity (in words)” value was “exhibit clinical anti-tumor activity”.
Take `COc1cccc2c1C(=O)c1c(O)c3c(c(O)c1C2=O)C[C@@](O)(C(=O)CO)C[C@@H]3O[C@H]1C[C@H](N)[C@H](O)[C@H](C)O1` [Doxorubicin]: the “cardiomyopathy (in words)” value in data set [1] is “unusual cardiomyopathy”.
As to `COc1cc(NS(C)(=O)=O)ccc1Nc1c2ccccc2nc2ccccc12` [amsacrine], in [2], the “clinical anti-tumor activity (in words)” value is “exhibit clinical anti-tumor activity”.
`O=C1c2cccc3cc([N+](=O)[O-])cc(c23)C(=O)N1CCOCCOCCN1C(=O)c2cccc3cc([N+](=O)[O-])cc(c23)C1=O` [Compound 19, 5-[2-(3-Nitronaphthalene-1,8-dicarboximido)ethoxy]-1-(3-nitronaphthalene-1,8-dicarboximido)-3-oxapentane]: the IC50 is 56 µM in data set [3], 49 µM in data set [4], 83 µM in data set [5] and 0.051 µM in data set [6]. Further, the “Ratio (AT/GC)” value in [4] is given as 1.7. Further, in data set [6], the “anticancer activity against B16 melanoma in vitro (in words)” value is on record as “potent anticancer activity against this melanoma type”. The “DNA binding (in words)” value in data set [7] is recorded as “did not bind to DNA”.
For the compound `CN(C)CCN1C(=O)c2cccc3cc(N)cc(c23)C1=O` [amonafide], the “inhibition of topoisomerase II (in words)” value in data set [8] was “inhibit topoisomerase II”.
For the compound `C[C@H](CNCCNC[C@@H](C)N1C(=O)c2cccc3cc([N+](=O)[O-])cc(c23)C1=O)N1C(=O)c2cccc3cc([N+](=O)[O-])cc(c23)C1=O` [DMP840, (R,R)-2,2'[1,2-ethanediylbis[imino (1-methyl-2,1-ethanediyl)]]-bis[5-nitro-1H-benz[de]isoquinoline-1,3-(2H)-dione]dimethanesulfonate], the IC50 was found to be 0.073 µM in [3]; 0.092 µM in data set [4]; 3.28 µM in data set [5]; 0.006 µM in [9]; 0.027 µM in [6]; 0.007 µM in data set [10]. Besides, in data set [4], the “Ratio (AT/GC)” value was 35.2. Moreover, the water solubility in data set [11] was 3400 µg/mL (≈ 5.44 mM). The “anti-tumor activity, MX-1 (in words)” value in data set [12] is reported as “anti-tumor efficacy in vivo”. For the same compound, the “anti-tumor activity, DLD-2 (in words)” value in data set [13] is recorded as “anti-tumor efficacy in vivo”. The “anti-tumor efficacy, LX-1 (in words)” value in data set [14] is on record as “anti-tumor efficacy in vivo”. Also, the “anti-tumor efficacy in vivo (in words)” value in [15] is on record as “anti-tumor efficacy in vivo”. The “irreversible toxicities (in words)” value in data set [16] is reported as “no irreversible toxicities”. The “60-Day Survivors” value in [17] (5 mg/kg) and in data set [17] (10 mg/kg) was 0 throughout. In addition, the “Wt. Ch. (%) (Day 7)” value is recorded as “+4.6%” in data set [17] (5 mg/kg) and -0.33% in data set [17] (10 mg/kg). The T/C in [17] (5 mg/kg) was found to be 156%; in [17] (10 mg/kg), 179%.
In the case of `O=C1c2cccc3cc([N+](=O)[O-])cc(c23)C(=O)N1CCNCCOCCN1C(=O)c2cccc3cc([N+](=O)[O-])cc(c23)C1=O` [Compound 6], the “DNA binding (in words)” value in data set [7] is “dose-dependent decrease in fluorescence intensity”. Moreover, in data set [17] (15 mg/kg), the “60-Day Survivors” value was found to be 0, the “Wt. Ch. (%) (Day 7)” value was -7.4% and the T/C amounted to 210%. Further, in data set [17] (30 mg/kg), the “60-Day Survivors” value amounted to 0, the “Wt. Ch. (%) (Day 7)” value is recorded as -16.4% and the T/C was determined as 233%. The “activity against B16 melanoma in vivo (in words)” value in data set [17] (mouse, in vivo) was “potent activity against B16 melanoma in vivo; also recorded: remarkable activity; also recorded: more active in this model than DMP840, compounds 22 and 23, and cytoxan; also recorded: more effective against B16 melanoma compared with DMP840”.
